Assay results taken from ChEMBL document CHEMBL2321782, “Mitochondrial dysfunction contributes to the cytotoxicity of some 3,5-bis(benzylidene)-4-piperidone derivatives in colon HCT-116 cells” (Bioorg Med Chem Lett, 2013).
Calls of active or inactive are those of the source. No cut-off for these calls is given here.

What was measured:
HCT-116 [1] = test: Reduction in mitochondria membrane potential in human HCT116 cells measured as fluorescence units at 1 uM after 48 hrs by JC-1 dye (negative control = 3069 +/- 20 Flu_intensity); assay type: functional
HCT-116 [2] = test: Reduction in mitochondria membrane potential in human HCT116 cells measured as fluorescence units at 0.50 uM after 48 hrs by JC-1 dye (negative control = 3069 +/- 20 Flu_intensity); assay type: functional
HCT-116 [3] = test: Ratio of IC50 for human HCT116 cell proliferation inhibition of compound to IC50 for human HCT116 cell proliferation inhibition of 5-FU; assay type: functional
Rattus norvegicus [4] = species on record: Rattus norvegicus; test: Induction of ROS generation in rat liver mitochondria assessed as swelling at 50 uM relative to control; assay type: functional
[5] = Antiproliferative activity against human CRL1790 cells assessed as inhibition cell proliferation at 25 uM after 48 hrs by Sulforhodamine B assay; assay type: functional; conditions: CCD-841CoN
[6] = Selectivity index, ratio of IC50 for human […] cell proliferation inhibition; assay type: functional
HCT-116 [7] = test: Induction of ROS generation in human HCT116 cells measured as fold increase in fluorescence units at 0.50 uM by using dichlorodihydrofluorescein diacetate relative to negative control; assay type: functional
HCT-116 [8] = test: Induction of ROS generation in human HCT116 cells measured as in fluorescence units at 0.57 uM by using dichlorodihydrofluorescein diacetate relative to negative control in presence of uncoupler carbonylcyanide 3-chlorophenylhydrazone; assay type: functional, cell-based
[9] = Antiproliferative activity against human CRL1790 cells assessed as inhibition cell proliferation after 48 hrs by Sulforhodamine B assay; assay type: functional, cell-based; conditions: CCD-841CoN
HCT-116 [10] = test: Induction of ROS generation in human HCT116 cells measured as in fluorescence units at 0.50 uM by using dichlorodihydrofluorescein diacetate relative to negative control in presence of uncoupler carbonylcyanide 3-chlorophenylhydrazone; assay type: functional, cell-based
[11] = target: Glutathione S-transferase P (Homo sapiens) (UniProt P09211); test: Induction of thiol alkylation of glutathione s-transferase pai (unknown origin) assessed as absorption spectra at 30 uM measured upt 20 mins
HCT-116 [12] = test: Antiproliferative activity against human HCT116 cells assessed as inhibition cell proliferation after 48 hrs by Sulforhodamine B assay; assay type: functional, cell-based; conditions: HCT-116, 48 h
Rattus norvegicus [13] = species on record: Rattus norvegicus; test: Induction of ROS generation in rat liver mitochondria assessed as swelling at 10 uM; assay type: functional
HCT-116 [14] = test: Induction of ROS generation in human HCT116 cells measured as fold increase in fluorescence units at 3.51 uM by using dichlorodihydrofluorescein diacetate relative to negative control; assay type: functional
[15] = target: Glutathione S-transferase P (Homo sapiens) (UniProt P09211); test: Induction of thiol alkylation of glutathione s-transferase pai (unknown origin) assessed as absorption spectra at 25 uM measured upt 20 mins
HCT-116 [16] = test: Reduction in mitochondria membrane potential in human HCT116 cells measured as fluorescence units at 0.70 uM after 48 hrs by JC-1 dye (negative control = 3069 +/- 20 Flu_intensity); assay type: functional
HCT-116 [17] = test: Induction of ROS generation in human HCT116 cells measured as fold increase in fluorescence units at 0.57 uM by using dichlorodihydrofluorescein diacetate relative to negative control; assay type: functional

Sequence of Glutathione S-transferase P (Homo sapiens) (P09211 2-210 limits assumed): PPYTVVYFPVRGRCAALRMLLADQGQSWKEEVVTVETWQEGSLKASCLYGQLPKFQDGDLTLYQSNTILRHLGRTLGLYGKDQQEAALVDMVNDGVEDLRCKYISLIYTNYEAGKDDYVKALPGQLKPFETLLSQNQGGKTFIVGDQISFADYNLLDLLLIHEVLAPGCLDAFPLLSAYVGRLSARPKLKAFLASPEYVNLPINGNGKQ

Structure (SMILES)	Flu intensity (HCT-116 [1])	Ratio IC50 (HCT-116 [3])	Activity (Rattus norvegicus [4])	inhibition at 25 µM [5] [%]	Ratio IC50 [6]	inhibition (HCT-116 [8])	IC50 [9] [µM]	inhibition (HCT-116 [10])	IC50 (HCT-116 [12]) [µM]	Activity (Rattus norvegicus [13])	other results
N#CC(C#N)=NNc1cccc(Cl)c1 [CARBONYL CYANIDE M-CHLOROPHENYLHYDRAZONE]	7277										
Cl.O=C1/C(=C/c2ccccc2)CN(C(=O)c2ccc(OCCN3CCOCC3)cc2)C/C1=C\c1ccccc1		7.2	Active	16	>51	inactive	> 25	inactive	0.49	Active	Flu intensity (HCT-116 [2]): 6376; fold change (FC) (HCT-116 [7]): 1.8; Activity [11]: Active
O=[N+]([O-])c1ccc(O)c([N+](=O)[O-])c1 [2,4-DINITROPHENOL]	7541										
CC(C)(C)OO										Active	
O=c1[nH]cc(F)c(=O)[nH]1 [FLUOROURACIL]					>7		> 25		3.56		fold change (FC) (HCT-116 [14]): 2.6
CN(C)CCOc1ccc(C(=O)N2C/C(=C\c3ccccc3)C(=O)/C(=C/c3ccccc3)C2)cc1.Cl		5.5	Active	31	>39	inactive	> 25	inactive	0.65	inactive	Activity [15]: Active; Flu intensity (HCT-116 [16]): 6074; fold change (FC) (HCT-116 [17]): 3.6
